Test results reported in US6461997B1, “Triazole sulfones having herbicidal activity” (Monsanto Technology LLC, priority 1999, dated 2002).

Columns and labels:
ECHCG (barnyardgrass) = experiment: Pre-emergence herbicidal activity, warm season; assay type: in vivo, Echinochloa crus-galli; conditions: GR80 = lowest tested rate (300, 100, 30, 10 g/ha) with 80% or greater inhibition; approx. 14 days after treating; 30/21° C.
Summary of the method: (§1)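 Seeds sown in sterilised fertilised topsoil received surface-applied compound in 50:50 acetone/water, typically at 300, 100, 30 and 10 g/ha, then greenhouse-grown at 30/21° C (warm-season species) or 18/13° C (cool-season species). Percent inhibition versus untreated plants was scored at about 14 days, giving GR80; an asterisk marks activity short of 80% at the top rate.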

SINAR (wild mustard) = experiment: Pre-emergence herbicidal activity, cool season; assay type: in vivo, Sinapis arvensis; conditions: lowest tested rate with 80% or greater inhibition; rates 300, 100, 30, 10 g/ha; about 14 days
Summary of the method: as §1

POLCO (wild buckwheat) = experiment: Pre-emergence herbicidal activity, cool season; assay type: in vivo, Polygonum convolvulus; conditions: lowest tested rate with 80% or greater inhibition; rates 300, 100, 30, 10 g/ha; about 14 days
Summary of the method: (§2)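 Each pot received seeds on sterilized fertilized topsoil, a soil cover, and a surface spray of compound (300–10 g/ha, acetone/water 50:50). Plants grew about 14 days at 30/21 °C (PANMI, DIGSA) or 18/13 °C (ALOMY, POLCO) before inhibition was rated against untreated pots to give GR80.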

SETFA (giant foxtail) = experiment: Pre-emergence herbicidal activity, warm season; assay type: in vivo, Setaria faberi; conditions: GR80 = lowest tested rate (300, 100, 30, 10 g/ha) with 80% or greater inhibition; approx. 14 days after treating; 30/21° C.
Summary of the method: as §1

SASKR (russian thistle) = experiment: Pre-emergence herbicidal activity, cool season; assay type: in vivo, Salsola kali; conditions: lowest tested rate with 80% or greater inhibition; rates 300, 100, 30, 10 g/ha; about 14 days
Summary of the method: as §1

[1] = tested on: SORHA (johnsongrass (seedling)); experiment: Pre-emergence herbicidal activity, warm season; assay type: in vivo, Sorghum halepense; conditions: GR80 = lowest tested rate (300, 100, 30, 10 g/ha) with 80% or greater inhibition; approx. 14 days after treating; 30/21° C.
Summary of the method: as §1

SORVU (shattercane) = experiment: Pre-emergence herbicidal activity, warm season; assay type: in vivo, Sorghum vulgare; conditions: GR80 = lowest tested rate (300, 100, 30, 10 g/ha) with 80% or greater inhibition; approx. 14 days after treating; 30/21° C.
Summary of the method: as §1

[2] = tested on: GALAP (catchweed bedstraw); experiment: Pre-emergence herbicidal activity, cool season; assay type: in vivo, Galium aparine; conditions: lowest tested rate with 80% or greater inhibition; rates 300, 100, 30, 10 g/ha; about 14 days
Summary of the method: as §1

LOLMG (annual ryegrass) = experiment: Pre-emergence herbicidal activity, cool season; assay type: in vivo, Lolium multiflorum; conditions: GR80 = lowest tested rate (300, 100, 30, 10 g/ha) with 80% or greater inhibition; approx. 14 days after treating; 18/13° C.
Summary of the method: as §1

[3] = tested on: AGRRE (quackgrass (seedling)); experiment: Pre-emergence herbicidal activity, cool season; assay type: in vivo, Elymus repens; conditions: GR80 = lowest tested rate (300, 100, 30, 10 g/ha) with 80% or greater inhibition; approx. 14 days after treating; 18/13° C.
Experimental: (§3) Tables 5 to 8 summarize results of tests conducted as described below to determine the pre-emergence herbicidal activity, in the form of a GR80 value, of illustrative compounds of this invention. […] Compounds of the invention were typically applied at rates of 300, 100, 30, and 10 g/ha. Where herbicidal activity was evident but 80% inhibition was not achieved at the highest rate tested, an asterisk (*) is shown in the following tables.
(§4) The pre-emergence tests were conducted by the following procedure. Topsoil was sieved to pass through a 1.27 cm screen. Fertilizer was added to the topsoil and the mixture was then sterilized by heating. The topsoil mixture was placed in a pot and compacted to a depth of 1.0 to 1.25 cm from the top of the pot. Seeds of each of several monocotyledonous and dicotyledonous annual plant species were placed on top of the soil. Additional soil was subsequently placed over the seeds to level-fill the pot. A known amount of each test compound dissolved or suspended in an appropriate organic solvent was diluted with a 50:50 mix of acetone and water and applied to the surface of the soil. After treatment the plants were placed in a greenhouse where they received 0.64 cm of overhead irrigation. All subsequent watering consisted of a light overhead mist and/or subirrigation as needed for germination and growth. Tables 5 and 6 below relate to warm season plant species which were placed after pre-emergence treatment in a greenhouse with a 30/21° C. day/night temperature regime. Tables 7 and 8 below relates to cool season plant species placed after pre-emergence treatment in a greenhouse or growth chamber with an 18/13° C. day/night temperature regime.
(§5) Approximately 14 days after planting and treating, the plants were observed and herbicidal efficacy recorded as percent inhibition by comparison with untreated plants.
(§6) The plant species usually regarded as weeds which were utilized in the tests are identified in the tables below according to the following legend, in which “d” indicates a dicotyledonous species and “m” a monocotyledonous species. All monocotyledonous species included in the tests herein are grasses.

[4] = tested on: AGSST (creeping bentgrass); experiment: Pre-emergence herbicidal activity, cool season; assay type: in vivo, Agrostis stolonifera; conditions: GR80 = lowest tested rate (300, 100, 30, 10 g/ha) with 80% or greater inhibition; approx. 14 days after treating; 18/13° C.
Summary of the method: as §1

SOLNI (black nightshade) = experiment: Pre-emergence herbicidal activity, warm season; assay type: in vivo, Solanum nigrum; conditions: GR80 = lowest tested rate (300, 100, 30, 10 g/ha) with 80% or greater inhibition; approx. 14 days after treating; 30/21° C.
Summary of the method: as §1

[5] = tested on: AEGCY (jointed goatgrass); experiment: Pre-emergence herbicidal activity, cool season; assay type: in vivo, Aegilops cylindrica; conditions: GR80 = lowest tested rate (300, 100, 30, 10 g/ha) with 80% or greater inhibition; approx. 14 days after treating; 18/13° C.
Experimental: as §3, §4, §5, §6

[6] = tested on: BRAPP (broadleaf signalgrass); experiment: Pre-emergence herbicidal activity, warm season; assay type: in vivo, Brachiaria platyphylla; conditions: GR80 = lowest tested rate (300, 100, 30, 10 g/ha) with 80% or greater inhibition; approx. 14 days after treating; 30/21° C.
Summary of the method: as §1

SETVI (green foxtail) = experiment: Pre-emergence herbicidal activity, cool season; assay type: in vivo, Setaria viridis; conditions: GR80 = lowest tested rate (300, 100, 30, 10 g/ha) with 80% or greater inhibition; approx. 14 days after treating; 18/13° C.
Summary of the method: as §1

DIGSA (large crabgrass) = experiment: Pre-emergence herbicidal activity, warm season; assay type: in vivo, Digitaria sanguinalis; conditions: GR80 = lowest tested rate (300, 100, 30, 10 g/ha) with 80% or greater inhibition; approx. 14 days after treating; 30/21° C.
Summary of the method: as §2

PANDI (fall panicum) = experiment: Pre-emergence herbicidal activity, warm season; assay type: in vivo, Panicum dichotomiflorum; conditions: GR80 = lowest tested rate (300, 100, 30, 10 g/ha) with 80% or greater inhibition; approx. 14 days after treating; 30/21° C.
Summary of the method: as §1

[7] = tested on: CHEAL (common lambsquarters); experiment: Pre-emergence herbicidal activity, warm season; assay type: in vivo, Chenopodium album; conditions: GR80 = lowest tested rate (300, 100, 30, 10 g/ha) with 80% or greater inhibition; approx. 14 days after treating; 30/21° C.
Summary of the method: as §1

ALOMY (blackgrass) = experiment: Pre-emergence herbicidal activity, cool season; assay type: in vivo, Alopecurus myosuroides; conditions: GR80 = lowest tested rate (300, 100, 30, 10 g/ha) with 80% or greater inhibition; approx. 14 days after treating; 18/13° C.
Summary of the method: as §2

POROL (common purslane) = experiment: Pre-emergence herbicidal activity, warm season; assay type: in vivo, Portulaca oleracea; conditions: GR80 = lowest tested rate (300, 100, 30, 10 g/ha) with 80% or greater inhibition; approx. 14 days after treating; 30/21° C.
Summary of the method: as §1

STEME (common chickweed) = experiment: Pre-emergence herbicidal activity, cool season; assay type: in vivo, Stellaria media; conditions: lowest tested rate with 80% or greater inhibition; rates 300, 100, 30, 10 g/ha; about 14 days
Summary of the method: as §1

[8] = tested on: PANMI (wild proso millet); experiment: Pre-emergence herbicidal activity, warm season; assay type: in vivo, Panicum miliaceum; conditions: GR80 = lowest tested rate (300, 100, 30, 10 g/ha) with 80% or greater inhibition; approx. 14 days after treating; 30/21° C.
Summary of the method: as §2

[9] = tested on: LAMPU (purple deadnettle); experiment: Pre-emergence herbicidal activity, cool season; assay type: in vivo, Lamium purpureum; conditions: lowest tested rate with 80% or greater inhibition; rates 300, 100, 30, 10 g/ha; about 14 days
Summary of the method: as §1

[10] = tested on: VERPE (creeping speedwell); experiment: Pre-emergence herbicidal activity, cool season; assay type: in vivo, Veronica persicaria; conditions: lowest tested rate with 80% or greater inhibition; rates 300, 100, 30, 10 g/ha; about 14 days
Summary of the method: as §1

AVEFA (wild oat) = experiment: Pre-emergence herbicidal activity, cool season; assay type: in vivo, Avena fatua; conditions: GR80 = lowest tested rate (300, 100, 30, 10 g/ha) with 80% or greater inhibition; approx. 14 days after treating; 18/13° C.
Experimental: as §3, §4, §5, §6

[11] = tested on: CIRAR (canada thistle (seedling)); experiment: Pre-emergence herbicidal activity, warm season; assay type: in vivo, Cirsium arvense; conditions: GR80 = lowest tested rate (300, 100, 30, 10 g/ha) with 80% or greater inhibition; approx. 14 days after treating; 30/21° C.
Summary of the method: as §1

SMILES | Pre-emergence activity GR80, SINAR (SINAR (wild mustard)) [g/ha] | Pre-emergence activity GR80, POLCO (POLCO (wild buckwheat)) [g/ha] | Pre-emergence activity (GR80) SETFA (SETFA (giant foxtail)) [g/ha] | Pre-emergence activity GR80, SASKR (SASKR (russian thistle)) [g/ha] | Pre-emergence activity GR80, GALAP [2] [g/ha] | Pre-emergence activity (GR80) AGSST [4] [g/ha] | Pre-emergence activity (GR80) AEGCY [5] [g/ha] | Pre-emergence activity (GR80) BRAPP [6] [g/ha] | Pre-emergence activity (GR80) SETVI (SETVI (green foxtail)) [g/ha] | Pre-emergence activity (GR80) DIGSA (DIGSA (large crabgrass)) [g/ha] | Pre-emergence activity (GR80) ALOMY (ALOMY (blackgrass)) [g/ha] | Pre-emergence activity (GR80) POROL (POROL (common purslane)) [g/ha] | Pre-emergence activity GR80, STEME (STEME (common chickweed)) [g/ha] | Pre-emergence activity (GR80) PANMI [8] [g/ha] | Pre-emergence activity GR80, LAMPU [9] [g/ha] | Pre-emergence activity GR80, VERPE [10] [g/ha] | Pre-emergence activity (GR80) AVEFA (AVEFA (wild oat)) [g/ha] | further results
CCCN(CC)C(=O)n1cnc(S(=O)(=O)C(F)(F)SCC)n1 [Example 51] | 10 | 100 | 100 | 100 | 100 | 10 | 300 | 100 | 100 | 100 | 300 | 300 | 10 | 100 | 10 | 10 | 300 | Pre-emergence activity (GR80) ECHCG (ECHCG (barnyardgrass)): 100 g/ha; Pre-emergence activity (GR80) SORHA [1]: 100 g/ha; Pre-emergence activity (GR80) SORVU (SORVU (shattercane)): 30 g/ha; Pre-emergence activity (GR80) LOLMG (LOLMG (annual ryegrass)): 100 g/ha; Pre-emergence activity (GR80) AGRRE [3]: 300 g/ha; Pre-emergence activity (GR80) SOLNI (SOLNI (black nightshade)): 300 g/ha; Pre-emergence activity (GR80) PANDI (PANDI (fall panicum)): 100 g/ha; Pre-emergence activity (GR80) CHEAL [7]: 10 g/ha
C=CCN(C)C(=O)n1cnc(S(=O)(=O)C(F)F)n1 [Example 30] | 100 | 100 | 300 | 10 | 100 | 30 | 100 | 300 | 300 | 300 | 300 | 300 | 10 | 100 | 10 | 10 | 100 | Pre-emergence activity (GR80) CIRAR [11]: 300 g/ha
